The results in this text go back to patent publication US11872262B2, “Means and methods for treating bacterial infections” (VIB VZW, priority 2017, dated 2024).

Each structure is given as a SMILES string. Residues, ends and D or L forms follow the SMILES beside them.

This test relates to E. coli O157:H7. The class given is cell-based, Escherichia coli. Conditions: screening-stage peptides tested at 1, 6, 12 and 25 μg/mL. An excerpt: In the present invention we used the statistical thermodynamics algorithm TANGO to identify aggregation prone regions (APR) in the proteome of E. coli strain O157:H7. This yielded 3535 sequences of at least 6 amino acids in length and a TANGO score of at least 20%. In order to generate efficient aggregation seeds, we employed a previously devised tandem repeat design ^19, 21, in which the APRs are repeated once and separated by a linker. Given the length limitation on solid phase peptide synthesis with regard to yield and purity, we focused on the 1542 APRs with a length of 7 amino acids. In order to maximize the potential of these peptides to induce aggregation in E. coli, we ranked the APRs by their frequency of occurrence throughout the E. coli proteome, allowing a single amino acid mismatch, and selected the first 75 most frequently occurring sequences from this list (Table 4). In the design pattern, and in order to increase the colloidal stability of these aggregating peptides, the APRs are flanked by aggregation gatekeepers, a class of residues that was previously shown to reduce aggregation kinetics^22-24. […] To generate the tandem we used a single proline residue as a linker between the gatekeeper-flanked APRs. In addition to the 75 peptides generated in this fashion, we added 2 variants of each of the first 25 peptides in the list by randomly mutating one residue in the first APR repeat to arginine to further modulate the aggregation propensity of the peptides (Table 4). All the peptides were generated using solid phase synthesis at 200 nmole scale and dissolved in DMSO to a theoretical stock concentration of 2 mM (assuming 100% synthesis efficiency). Peptide activity on the growth of E. coli O157:H7 was measured at dilutions of the peptide corresponding to concentrations of 1, 6, 12 and 25 μg/mL. […] The Matthews Correlations Coefficient (MCC) with the measured activity was 0.1 at 12 μg/mL and 0.24 at 25 μg/mL.
For `CC(C)C[C@H](NC(=O)CNC(=O)[C@@H](NC(=O)[C@H](CC(C)C)NC(=O)[C@H](CCCNC(=N)N)NC(=O)[C@@H]1CCCN1C(=O)[C@H](CCCNC(=N)N)NC(=O)[C@H](CCCNC(=N)N)NC(=O)CNC(=O)[C@H](CC(C)C)NC(=O)[C@@H](NC(=O)[C@H](CC(C)C)NC(=O)CNC(=O)[C@@H](NC(=O)[C@H](CC(C)C)NC(=O)[C@@H](N)CCCNC(=N)N)C(C)C)C(C)C)C(C)C)C(=O)N[C@H](C(=O)N[C@@H](CC(C)C)C(=O)NCC(=O)N[C@@H](CCCNC(=N)N)C(=O)N[C@@H](CCCNC(=N)N)C(=O)O)C(C)C` [Peptide P50] (H-RLVGLVLGRRPRLVGLVLGRR-OH; N-terminus and C-terminus assumed), the “E. coli O157 (apparent MIC in screen)” value turned out to be 6 µg/mL.
With `CC(C)C[C@H](NC(=O)[C@H](C)NC(=O)[C@@H](N)CCCNC(=N)N)C(=O)N[C@@H](C)C(=O)N[C@@H](CCCNC(=N)N)C(=O)N[C@@H](C)C(=O)N[C@@H](CC(C)C)C(=O)N[C@@H](CC(C)C)C(=O)N[C@@H](CCCNC(=N)N)C(=O)N[C@@H](CCCNC(=N)N)C(=O)N1CCC[C@H]1C(=O)N[C@@H](CCCNC(=N)N)C(=O)N[C@@H](C)C(=O)N[C@@H](CC(C)C)C(=O)N[C@@H](C)C(=O)N[C@H](C(=O)N[C@@H](C)C(=O)N[C@@H](CC(C)C)C(=O)N[C@@H](CC(C)C)C(=O)N[C@@H](CCCNC(=N)N)C(=O)N[C@@H](CCCNC(=N)N)C(=O)O)C(C)C` [Peptide P112] (H-RALARALLRRPRALAVALLRR-OH; N-terminus and C-terminus assumed) the figure was 25 µg/mL; with `CC(C)C[C@H](NC(=O)[C@H](C)NC(=O)[C@H](CC(C)C)NC(=O)[C@@H](NC(=O)[C@H](C)NC(=O)[C@H](CO)NC(=O)[C@H](CCCNC(=N)N)NC(=O)[C@@H]1CCCN1C(=O)[C@H](CCCNC(=N)N)NC(=O)[C@H](CCCNC(=N)N)NC(=O)[C@H](CC(C)C)NC(=O)[C@H](CC(C)C)NC(=O)[C@H](C)NC(=O)[C@H](CC(C)C)NC(=O)[C@H](CCCNC(=N)N)NC(=O)[C@H](C)NC(=O)[C@H](CO)NC(=O)[C@@H](N)CCCNC(=N)N)C(C)C)C(=O)N[C@@H](CC(C)C)C(=O)N[C@@H](CCCNC(=N)N)C(=O)N[C@@H](CCCNC(=N)N)C(=O)O` [Peptide P93] (H-RSARLALLRRPRSAVLALLRR-OH; N-terminus and C-terminus assumed), 25 µg/mL.
For `CC(C)C[C@H](NC(=O)[C@H](CC(C)C)NC(=O)[C@H](CC(C)C)NC(=O)[C@H](CCCNC(=N)N)NC(=O)[C@@H]1CCCN1C(=O)[C@H](CCCNC(=N)N)NC(=O)[C@H](CCCNC(=N)N)NC(=O)[C@@H](NC(=O)[C@H](CC(C)C)NC(=O)[C@H](CC(C)C)NC(=O)[C@H](CO)NC(=O)[C@H](CC(C)C)NC(=O)[C@H](CCCNC(=N)N)NC(=O)[C@H](CC(C)C)NC(=O)[C@@H](N)CCCNC(=N)N)C(C)C)C(=O)N[C@@H](CO)C(=O)N[C@@H](CC(C)C)C(=O)N[C@@H](CC(C)C)C(=O)N[C@H](C(=O)N[C@@H](CCCNC(=N)N)C(=O)N[C@@H](CCCNC(=N)N)C(=O)O)C(C)C` [Peptide P76] (H-RLRLSLLVRRPRLLLSLLVRR-OH; N-terminus and C-terminus assumed) the value was 12 µg/mL; for `CC[C@H](C)[C@H](NC(=O)CNC(=O)[C@H](CCCNC(=N)N)NC(=O)[C@H](CC(C)C)NC(=O)[C@@H](N)CCCNC(=N)N)C(=O)N[C@@H](C)C(=O)N[C@@H](CC(C)C)C(=O)NCC(=O)N[C@@H](CCCNC(=N)N)C(=O)N[C@@H](CCCNC(=N)N)C(=O)N1CCC[C@H]1C(=O)N[C@@H](CCCNC(=N)N)C(=O)N[C@@H](CC(C)C)C(=O)N[C@H](C(=O)NCC(=O)N[C@H](C(=O)N[C@@H](C)C(=O)N[C@@H](CC(C)C)C(=O)NCC(=O)N[C@@H](CCCNC(=N)N)C(=O)N[C@@H](CCCNC(=N)N)C(=O)O)[C@@H](C)CC)[C@@H](C)CC` [Peptide P90] (H-RLRGIALGRRPRLIGIALGRR-OH; N-terminus and C-terminus assumed), 25 µg/mL.
With `CC[C@H](C)[C@H](NC(=O)CNC(=O)[C@H](CC(C)C)NC(=O)[C@H](CCCNC(=N)N)NC(=O)[C@@H]1CCCN1C(=O)[C@H](CCCNC(=N)N)NC(=O)[C@H](CCCNC(=N)N)NC(=O)[C@H](CC(C)C)NC(=O)[C@H](C)NC(=O)[C@@H](NC(=O)[C@H](C)NC(=O)[C@@H](NC(=O)CNC(=O)[C@H](CC(C)C)NC(=O)[C@@H](N)CCCNC(=N)N)[C@@H](C)CC)C(C)C)C(=O)N[C@@H](C)C(=O)N[C@H](C(=O)N[C@@H](C)C(=O)N[C@@H](CC(C)C)C(=O)N[C@@H](CCCNC(=N)N)C(=O)N[C@@H](CCCNC(=N)N)C(=O)O)C(C)C` [Peptide P33] (H-RLGIAVALRRPRLGIAVALRR-OH; N-terminus and C-terminus assumed) the figure was 25 µg/mL; with `CC(C)C[C@H](NC(=O)[C@H](C)NC(=O)[C@H](CC(C)C)NC(=O)[C@@H](NC(=O)[C@H](CCCNC(=N)N)NC(=O)[C@@H]1CCCN1C(=O)[C@H](CCCNC(=N)N)NC(=O)[C@H](CCCNC(=N)N)NC(=O)[C@H](CC(C)C)NC(=O)[C@H](C)NC(=O)[C@H](CCCNC(=N)N)NC(=O)[C@H](CC(C)C)NC(=O)[C@H](C)NC(=O)[C@H](CC(C)C)NC(=O)[C@@H](NC(=O)[C@@H](N)CCCNC(=N)N)C(C)C)C(C)C)C(=O)N[C@@H](C)C(=O)N[C@@H](C)C(=O)N[C@@H](CC(C)C)C(=O)N[C@@H](CCCNC(=N)N)C(=O)N[C@@H](CCCNC(=N)N)C(=O)O` [Peptide P111] (H-RVLALRALRRPRVLALAALRR-OH; N-terminus and C-terminus assumed), 25 µg/mL.
Turning to `CC(C)C[C@H](NC(=O)[C@H](C)NC(=O)[C@H](CC(C)C)NC(=O)[C@@H](NC(=O)[C@H](CCC(N)=O)NC(=O)[C@H](C)NC(=O)[C@H](CCCNC(=N)N)NC(=O)[C@@H]1CCCN1C(=O)[C@H](CCCNC(=N)N)NC(=O)[C@H](CCCNC(=N)N)NC(=O)[C@H](CC(C)C)NC(=O)[C@H](CC(C)C)NC(=O)[C@H](C)NC(=O)[C@H](CC(C)C)NC(=O)[C@@H](NC(=O)[C@H](CCC(N)=O)NC(=O)[C@H](C)NC(=O)[C@@H](N)CCCNC(=N)N)C(C)C)C(C)C)C(=O)N[C@@H](CC(C)C)C(=O)N[C@@H](CCCNC(=N)N)C(=O)N[C@@H](CCCNC(=N)N)C(=O)O` [Peptide P40] (H-RAQVLALLRRPRAQVLALLRR-OH; N-terminus and C-terminus assumed), the “E. coli O157 (apparent MIC in screen)” value was determined as 25 µg/mL.
With `CC(C)C[C@H](NC(=O)[C@H](C)NC(=O)[C@@H](NC(=O)[C@H](CC(C)C)NC(=O)[C@H](CCC(N)=O)NC(=O)[C@H](CCCNC(=N)N)NC(=O)[C@@H]1CCCN1C(=O)[C@H](CCCNC(=N)N)NC(=O)[C@H](CCCNC(=N)N)NC(=O)[C@@H](NC(=O)[C@H](CCCNC(=N)N)NC(=O)[C@H](CC(C)C)NC(=O)[C@H](C)NC(=O)[C@@H](NC(=O)[C@H](CC(C)C)NC(=O)[C@H](CCC(N)=O)NC(=O)[C@@H](N)CCCNC(=N)N)C(C)C)C(C)C)C(C)C)C(=O)N[C@@H](CC(C)C)C(=O)N[C@H](C(=O)N[C@@H](CCCNC(=N)N)C(=O)N[C@@H](CCCNC(=N)N)C(=O)O)C(C)C` [Peptide P117] (H-RQLVALRVRRPRQLVALLVRR-OH; N-terminus and C-terminus assumed) the figure was 25 µg/mL; with `CC[C@H](C)[C@H](NC(=O)[C@H](CC(C)C)NC(=O)[C@H](CC(C)C)NC(=O)[C@H](C)NC(=O)[C@H](CCCNC(=N)N)NC(=O)[C@@H]1CCCN1C(=O)[C@H](CCCNC(=N)N)NC(=O)[C@H](CCCNC(=N)N)NC(=O)[C@H](CC(C)C)NC(=O)[C@H](CC(C)C)NC(=O)[C@@H](NC(=O)[C@@H](NC(=O)[C@H](CCCNC(=N)N)NC(=O)[C@H](CC(C)C)NC(=O)[C@H](C)NC(=O)[C@@H](N)CCCNC(=N)N)[C@@H](C)CC)[C@@H](C)O)C(=O)N[C@H](C(=O)N[C@@H](CC(C)C)C(=O)N[C@@H](CC(C)C)C(=O)N[C@@H](CCCNC(=N)N)C(=O)N[C@@H](CCCNC(=N)N)C(=O)O)[C@@H](C)O` [Peptide P123] (H-RALRITLLRRPRALLITLLRR-OH; N-terminus and C-terminus assumed), 25 µg/mL.
With `CC(C)C[C@H](NC(=O)CNC(=O)[C@H](CCCNC(=N)N)NC(=O)[C@@H]1CCCN1C(=O)[C@H](CCCNC(=N)N)NC(=O)[C@H](CCCNC(=N)N)NC(=O)[C@H](C)NC(=O)[C@H](CC(C)C)NC(=O)[C@H](CC(C)C)NC(=O)[C@H](C)NC(=O)[C@H](CC(C)C)NC(=O)[C@H](CC(C)C)NC(=O)CNC(=O)[C@@H](N)CCCNC(=N)N)C(=O)N[C@@H](CC(C)C)C(=O)N[C@@H](C)C(=O)N[C@@H](CC(C)C)C(=O)N[C@@H](CC(C)C)C(=O)N[C@@H](C)C(=O)N[C@@H](CCCNC(=N)N)C(=O)N[C@@H](CCCNC(=N)N)C(=O)O` [Peptide P14] (H-RGLLALLARRPRGLLALLARR-OH; N-terminus and C-terminus assumed) the figure was 12 µg/mL.
